Like-named read-outs stand apart in the source and are kept apart here.

The nature of series [1]: Hygroscopicity test: weight gain of solid sample in humidity chamber at RH=80%. To be noted: for hygroscopicity (in words): RH=80% screening; for weight gain in hygroscopicity test: RH=80%, T=20±2° C., during 24 hrs. It counts as physicochemical. From the text:
There are many methods of quantitative evaluation of hygroscopicity of solid products without measuring the hygroscopic point. The most widely used method is based on measuring the weight gain of a solid sample in a humidity chamber. […] This method was used for screening the hygroscopicity of several LDEE salts. It also provides a comparison of the hygroscopic properties of different solids by comparison of water absorption rates under the same conditions.

The conditions of series [2]: background statement; cited from earlier work.
Another series in a line: pH of water solution. It counts as physicochemical.
Series [3] can be described thus: pKa and delta pKa (pKa LDEE − pKa acid). Format: physicochemical. The text has this: Preparation and selection of salts that have different physical properties are detailed in the literature. […]. PKa of LDEE free base is known to be 7.24 [8]. […]. This fact is illustrated in Example 1 below, in which the crystallization of LDEE palmitate was attempted. After dissolution of LDEE base and palmitic acid in absolute alcohol, the solution was cooled, and instead of forming a new salt, pure palmitic acid was crystallized out, and no solid crystalline salt was formed. […]

The conditions of series [4]: background, from references; cited from earlier work.
For series [5] the following is noted: cited from earlier work.
The nature of series [6]: Exposure of hygroscopic salts to atmospheric air.

As for `CCOC(=O)[C@@H](N)Cc1ccc(O)c(O)c1` [LDEE, L-DOPA ethyl ester], in series [1] (RH = 80%), the “Color stability at RH = 80%, hrs” value was “˜50 hrs”; the “Mean water absorption rate at RH = 80%” value was 0.005 mol/kg/h; the “Material appearance after 24 hrs at RH = 80%” value was “White flowable powder”; the “Weight gain during 24 hrs at RH = 80%,%” value was 0.24%. Besides, in series [1], the “hygroscopicity (in words)” value is “not a hygroscopic material”. The “aqueous solution pH” value in series [2] is on record as 8.2. Also, the “pH of water solution” value in “pH of water solution” is on record as 8.2. In addition, the “delta pKa pKaLDEE − pKaacid (first value)” value (shortened to “delta pKa pKaLDEE − pKaacid”) in series [3] was determined as 0. Besides, in series [4], the “hygroscopicity (in words)” value is “non-hygroscopic”.

As a reminder, the pKa is the negative logarithm of the acid dissociation constant. Turning to `CCCCCCCCCCCCCCCC(=O)O` [Palmitic acid], the DpKa in series [3] is recorded as 2.4. Further, the “pKa (first value)” value in series [5] (acid or acid salt used for salt preparation) was “˜4.8”. In addition, in series [5], the pKa is recorded as 4.8.

`CCOC(=O)[C@@H](N)Cc1ccc(O)c(O)c1.CS(=O)(=O)O` [Example 3, LDEE Mesylate]: in series [1] (RH = 80%), the “Color stability at RH = 80%” value was over 24 h, the “Mean water absorption rate at RH = 80%” value was determined as 0.405 mol/kg/h, the “Material appearance after 24 hrs at RH = 80%” value was “Syrup” and the “Weight gain during 24 hrs at RH = 80%,%” value was 17.5%. Moreover, in series [1], the “hygroscopicity (in words)” value is “hygroscopic” and the “weight gain in hygroscopicity test” value came out at 17.5%. The “behaviour in atmospheric air (in words)” value in series [6] is “deliquescent”. Further, the “delta pKa pKaLDEE − pKaacid” value in series [3] is 6.04.

Regarding `CC(=O)O.CCOC(=O)[C@@H](N)Cc1ccc(O)c(O)c1` [Example 2, LDEE Acetate], in series [1] (RH = 80%), the “Color stability at RH = 80%” value turned out to be 1.5 h, the “Mean water absorption rate at RH = 80%” value came to 0.155 mol/kg/h, the “Material appearance after 24 hrs at RH = 80%” value is reported as “Semi-solid melt” and the “Weight gain during 24 hrs at RH = 80%,%” value stood at 6.7%. In series [1], the “hygroscopicity (in words)” value is “hygroscopic” and the “weight gain in hygroscopicity test” value is recorded as 6.7%. In series [6], the “behaviour in atmospheric air (in words)” value is reported as “deliquescent”. Further, the “delta pKa pKaLDEE − pKaacid” value in series [3] worked out at 2.48.

Consider `CCOC(=O)[C@@H](N)Cc1ccc(O)c(O)c1.Cl` [hydrochloride salt of LDEE], for which the “hygroscopicity (in words)” value in series [4] was “extremely hygroscopic”.

Values taken from patent publication US6696600B2, “L-DOPA ethyl ester salts and uses thereof” (priority 2001, dated 2004).
